The source of these data is patent US20190125867A1, “THERAPEUTIC AGENT FOR SOLID CANCER” (IDAC THERANOSTICS, INC., priority 2014, published 2019).

Test [1] has as its system mouse melanoma cell line B16F10. Briefly: Tumor volume in C57BL/6 mice transplanted with melanoma cell line B16F10. In kind it is in vivo. The following applies: Day 15. The method, then: On Day −2 (two days before the cancer cell transplantation), Day 0 (=day of cancer cell transplantation), Day 3, Day 5, Day 9, or Day 12, 0.2 mg of an anti-CD4 antibody (GK1.5; an antibody known to be capable of causing depletion of CD4+ cells in the mouse body by the CDC activity; manufactured by BioXcell) was intraperitoneally administered at one time. The solid tumor diameter was measured on Day 14, and the tumor volume was calculated by short diameter×short diameter×long diameter×π/6.
On Day 5, 3.125 μg, 12.5 μg, 50 μg, or 200 μg of the anti-CD4 antibody was administered (negative control group: no antibody was administered).
The solid tumor diameter in each mouse was measured, and the tumor volume was calculated (short diameter×short diameter×long diameter×π/6).
Thereafter, antibody administration was carried out as follows (Day 0=day of cancer cell transplantation).
The tumor volume was calculated (short diameter×short diameter×long diameter×π/6) from the solid tumor diameter measured on Day 18.
The tumor volume was calculated (short diameter×short diameter×long diameter×π/6) from the solid tumor diameter measured on Day 15.
The tumor volume was calculated (short diameter×short diameter×long diameter×π/6) from the solid tumor diameter measured on Day 16.

Test [2] deals with CD4+ cells in human peripheral blood mononuclear cells. Put plainly: ADCC activity assay (Promega ADCC activity assay kit, PBMCs + ADCC Bioassay Effector cells). The following applies: 12,500 PBMCs, 75,000 effector cells, 37° C. 6 hours; FIG. 1. The class given is cell-based. The method, then:
Measurement of the ADCC activity of IT1208 was carried out under the following conditions, according to the protocol for an ADCC activity assay kit sold by Promega. After gently mixing 12,500 PBMCs derived from a healthy individual, anti-CD4mAb (IT1208), and 75,000 ADCC Bioassay Effector cells contained in the Promega kit, the cells were cultured in a CO2 incubator at 37° C. for 6 hours. The luminescent reagent Bio-Glo reagent was added to the culture, and culturing was then continued at room temperature for 20 minutes, followed by measuring chemiluminescence using a luminescence plate reader.

Where [3] appears, read: Example 7 (small molecule anticancer agents), anti-CD4 0.2 mg Day 5, 9, OXA 10, GEM 20, CPA 10 mg/kg Day 5, 9, 12, 16, FIG. 23.

As to `O=P1(N(CCCl)CCCl)NCCCO1` (stereo not shown) [CPA, Cyclophosphamide], the “growth of solid tumor relative to control group” value in test [1] (setting [3]) stood at 75%. For the compound `Nc1ccn([C@@H]2O[C@H](CO)[C@@H](O)C2(F)F)c(=O)n1` [GEM, Gemcitabine], the “growth of solid tumor relative to control group” value in test [1] (setting [3]) was determined as 63%.

In the case of `O=c1[nH]cc(F)c(=O)[nH]1` [5-FU], the “growth of solid tumor relative to control group” value in test [1] (Example 4, anti-CD4 0.2 mg once Day 5, anti-CD137 0.1 mg Day 5-9, 5-FU 50 mg/kg four times, FIG. 13) was found to be 36%. As for Rituximab, the “concentration at which ADCC activity began to be found” value in test [2] is no less than 10 nM.
